Results: the METLIN SMRT retention time set (Domingo-Almenara et al. 2019)

Test: gradient 5% acetonitrile 3 min, to 50% in 2 min, to 85% in 15 min, held 3 min, 100 µL/min
Settings: column: Zorbax Extend-C18 2.1 x 50 mm; eluents: water / acetonitrile, 0.1% formic acid
Summary of the method: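 Pure standards were analyzed in mixtures of ~100 molecules using HPLC coupled to a quadrupole time-of-flight mass spectrometer, in both positive and negative ionization mode. Separation used a Zorbax Extend-C18 column (2.1 × 50 mm, 1.8 μm) at 100 μL/min, with water and acetonitrile each containing 0.1% formic acid. Dead and dwell volumes were 40 μL and 900 μL, and data were collected over 3 months. Retention time was read from computationally picked adduct peaks, each inspected manually.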

Row | Structure (SMILES) | RP-LC retention time
1 | Cc1cccc(-c2nc3sc(N4CCCCC4)nn3c2NC(=O)C2CC2)c1 | 891 s
2 | CCc1cc(N2CCN(C(=O)c3cc(OC)c(OC)c(OC)c3)CC2)nc2nncn12 | 593 s
3 | Cc1ccc(S(=O)(=O)NCC(c2ccccc2)N(C)C)cc1 (stereo unspecified) | 642 s
4 | CCN1C(=O)C2(CCN(C(=O)c3ccc(OC(C)C)cc3)CC2)c2ccccc21 | 1020 s
5 | Cc1noc([C@@H]2CN(Cc3ccc(F)cc3Cl)C[C@H]2CO)n1 | 600 s
6 | O=C(O)[C@H]1O[C@H](Oc2cc3oc(-c4ccccc4)cc(=O)c3c(O)c2O)[C@H](O)[C@@H](O)[C@@H]1O | 658 s
7 | COc1ccc(C2(C(=O)N3CCC(OCCOc4ccc(F)cc4)CC3)CC2)cc1 | 997 s
8 | Cc1nnc(-c2ccc3ccn(CC(=O)Nc4ccccc4Cl)c3c2)o1 | 963 s
9 | COc1ccc(-c2nc(-c3ccc4c(c3)nnn4CCN(C)C)no2)c(C)c1 | 700 s
10 | Cn1nc2c(c1NC(=O)COc1ccc(Cl)cc1Cl)CCC2 | 815 s
11 | CCC(=O)N1CCc2c(-c3ccccc3)cccc2[C@H]1C | 1030 s
12 | CCOC(=O)Cc1ccc(NC(=O)N2CCN(CC)c3ncccc32)cc1 | 641 s
13 | CCN1CCCC1CN(CCC(=O)N1CCNCC1)C(=O)c1ccc(C(F)(F)F)cc1 (stereo unspecified) | 569 s
14 | Cn1c(C(=O)NCCc2ccccc2)cc2sc(Cl)cc21 | 1050 s
15 | Cc1ccc(CN2CCN(C3CCN(S(=O)(=O)c4cccc(C)c4)CC3)C(=O)C2=O)cc1 | 873 s
16 | O=C(Nc1cc(-c2ccsc2)no1)c1ccc(C(F)(F)F)cc1 | 1060 s
17 | COc1cccc(CNC(=O)Cn2cnc3onc(C)c3c2=O)c1 | 708 s
18 | COc1ccc(C(=O)N2CC(n3cc(COCC4CC4)nn3)C2)c(OC)n1 | 718 s

Row | Structure (SMILES) | RP-LC retention time
19 | CCSc1nnc(-c2nn(C)c3c2CN(C(=O)c2c(F)cccc2F)CC3)n1C | 746 s
20 | Cc1cc(C)n(-c2nc(-c3ccc(Cl)cc3)cs2)n1 | 1420 s
21 | COc1ccc(-c2nnc(-c3ccccc3)o2)cc1S(=O)(=O)N1CCC(C)CC1 | 1090 s
22 | Cc1cc(=O)n(CC(=O)Nc2ccc3c(c2)OCO3)c(-c2ccc(Cl)cc2)n1 | 1040 s
23 | CCc1nc(N2CCC(C(=O)NCc3cccc(C(F)(F)F)c3)CC2)c2c(C)scc2n1 | 786 s
24 | O=C(c1cccs1)N1CCCCC1c1nncn1-c1ccccc1 (stereo unspecified) | 705 s
25 | Cc1ccc(NC(=O)Cc2nnc(-c3cnccn3)o2)c(C)c1 | 700 s
26 | CN(CCC#N)c1ccc(NC(=O)c2ccc(Br)cc2)cc1C(=O)O | 740 s
27 | O=C(NCc1ccc(F)cc1F)C1CCCN(c2cn[nH]c(=O)c2)C1 (stereo unspecified) | 660 s
28 | O=C(O)CCC(=O)Nc1cccc(C(F)(F)F)c1 | 674 s
29 | CN(C)c1ccc(NC(=O)Cn2nc3c(Oc4ccccc4Cl)nccn3c2=O)cc1 | 676 s
30 | Cc1noc(C)c1S(=O)(=O)N1CCC(n2c(C)cnc2-c2ccncc2)C1 (stereo unspecified) | 616 s
31 | COc1ccc(CNc2nc3ccncc3n(C(C)C)c2=O)cc1 | 652 s
32 | Cc1cccc(NC(=O)N2C[C@@H](F)C[C@H]2C(=O)N2CCc3ccccc3C2)c1C | 811 s
33 | Cc1ccc(C)c(N2CCN(Cc3nc(-c4ccc(N5CCCC(C)C5)nc4)no3)CC2)c1 (stereo unspecified) | 1280 s
34 | Cc1noc(C)c1S(=O)(=O)N1CCC(C(=O)NCc2csc(-c3ccccc3)n2)CC1 | 870 s
35 | CCNC(=O)Nc1ccc2c(c1)CN(S(=O)(=O)CC)CCO2 | 660 s
36 | COc1ccc(CNc2ccc(-c3nc(-c4ccc(F)cc4)no3)cn2)cc1 | 1220 s
